Experimental data reported in patent US5866556A, “Pyridinylbisphosphonates for use as a therapeutical agent” (Leiras Oy, priority 1994, dated 1999).
Like-named read-outs stand apart in the source and are kept apart here.

Assays:
[1] = test system: immobilization induced osteoporosis (femur bone area); assay: Effect on immobilization induced osteoporosis (sciatic nerve section) in rats; format: in vivo, Sprague-Dawley rat; settings: for Immobilized leg, femur total bone area: mean (SE), control 5.3 (0.6); for Femoral bone area in the immobilized leg / bone loss prevention (in words): sciatic nerve section
Method: Male Sprague-Dawley rats weighing 200±25 g were randomized by weight into groups and anesthetized with Hypnorm/Mebunat and Temgesic. A dorsolateral incision was made on the right or left hip through which the sciatic nerve was exposed, and a 0.5 cm section excised. The muscle and skin were sutured and the animal returned to its cage. The contralateral leg was left intact. The compound I dissolved in physiological saline was administered by subcutaneous injection daily at different dose levels from two days before the surgery until the day of 20 postneurectomy. Control animals received physiological saline. Animals double-labeled with fluorochrome at standardized time points were sacrificed at 21 days postneurectomy and their femora were removed. Femora were embedded in methylmetacrylate, sectioned, and stained. The metphyseal secondary spongiosa and the diaphyseal cortical bone of the femora were subjected to histomorphometric analysis. In control rats, femural total bone area decreased in the immobilized leg.

[2] = Binding to bone mineral (hydroxyapatite crystals, 14C-clodronate); settings: for Binding to bone mineral: two hours; for Binding to hydroxyapatite (in words): up to 500 μM, physiological pH, in vitro
Method: (§1) Newborn mice were labeled by a subcutaneous injection of ^45 Ca four days prior to sacrifice. Calvarial bone fragments were microdissected from the parietal bones, preincubated in culture medium with indomethacin, washed and then cultured for three days with and without the compound I. Bone resorption was stimulated by parathyroid hormone (PTH, 10 nM) and an inhibitory effect on this stimulated resorption was measured. […] For the determination of the binding of compound I to bone mineral, ^14 C-disodium clodronte tetrahydrate and hydroxyapatite crystals were incubated at room temperature in barbituric acid buffer at physiological pH in the absence and presence of the compound I in various concentrations. After two hours incubation, the mixture was centrifuged, and the percent of the total specifically bound radioactivity was measured from the supernatant. No binding of the compound I to hydroxyapatite was found at up to 500 μM concentration (Table 3).

[3] = test system: spontaneous bone resorption; assay: Effect on spontaneous bone resorption assessed by urinary tetracycline excretion from prelabeled rats; format: in vivo, Sprague-Dawley rat; settings: for Inhibition of tetracycline excretion: n=5, mean (SE); for Inhibition of excretion of radiolabeled tetracycline / spontaneous bone resorption (in words): rats, s.c.
Method: Male Sprague-Dawley rats were used. From the first week of life, the rats were injected subcutaneously with a solution containing 10 μCi/ml of (7-^3 H(N))tetracycline dissolved in physiological saline. The injections were performed twice weekly for 6 weeks. Every animal received a total amount of 20 μCi radiolabeled tetracycline. All animals were given normal diet for growing animals and water ad libitum. One week after the last injection of radiolabeled tetracycline, the rats were weighed and feeding with diet for adult animals was started. At fifth day the rats were randomized into groups and housed in individual metabolic cages. 24-h urine collections were performed for ten days. From the second day [(2-pyridinylamino)methylidene]bisphosphonic acid tetraethylester, compound I, dissolved in physiological saline was injected subcutaneously at different dose levels daily for six days. Control animals received physiological saline. Urine volume was measured and the radioactivity in urine samples was determined by liquid scintillation counting. The data was calculated as the ratio of treated/control at each day for the determination of maximal inhibition of tetracycline excretion.
Excretion of unmetabolized tetracycline into urine reflects its removal from bone during resorptive processes and thus enables the continual monitoring of bone resorption.

[4] = Pharmacokinetics: urinary excretion of parent compound and bioavailability from urine; format: in vivo, rat; settings: for Urinary excretion 0-24 h as parent compound / dose excreted at 24 h: single dose 114 mg/kg; for Urinary excretion 0-24 h as parent compound: 1440 min; for dose excreted at 24 h: urine, read-out: Urinary excretion 0-24 h as parent compound
Method: (§2) Pharmacokinetics of the compound [(2-pyridinylamino)methylidene]bisphosphonic acid tetraethylester was studied in rats. Minor amounts of an intravenous dose was excreted as a parent compound during 24 hours into urine supporting extensive metabolism as well. About half of the oral dose of the said compound was absorbed in rats.
(§3) Bioavailability was determined from the total amount of compound excreted into urine during 24 hours or from the serum concentration data at different time points after oral administration and intravenous administration. The urine and serum samples were analyzed for the test compound I with high pressure liquid chromatographic methods. […] Bioavailability of compound I assessed by serum concentration data was 44%.

[5] = test system: PTH-stimulated bone resorption, mice calvaria; assay: Inhibition of PTH-stimulated resorption of calvarial bone in vitro; format: cell-based, mouse; settings: for Inhibition of bone resorption in vitro, mice calvaria (in words): except at very high, unphysiological concentrations, calcium release
Method: as §1

[6] = Pharmacokinetics: serum AUC and bioavailability from serum concentration data; format: in vivo; settings: rat; for AUC(0-inf): single dose 114 mg/kg, read-out: AUC0->.infin.
Method: as §2, §3

[7] = listed as [(2-pyridinylamino)methylidene]bisphosphonic acid tetraethylester

CCOP(=O)(OCC)C(Nc1ccccn1)P(=O)(OCC)OCC [I, [(2-pyridinylamino)methylidene]bisphosphonic acid tetraethylester]
Immobilized leg, femur total bone area ([1]; 1 mg/kg s.c. daily, n=4): 6.0 (1.3) %
Immobilized leg, femur total bone area ([1]; 75 mg/kg s.c. daily, n=5): 24.5 (2.5) %
Immobilized leg, femur total bone area ([1]; 200 mg/kg s.c. daily, n=7): 35.5 (1.7) %
Immobilized leg, femur total bone area ([1]; 37,5 mg/kg s.c. daily, n=5): 17.3 (2.0) %
Mineral apposition rate of cortical bone ([1]; rats, s.c., data not presented): No deleterious effects
Femoral bone area in the immobilized leg / bone loss prevention (in words) ([1]; rats, s.c., listed as [(2-pyridinylamino)methylidene]bisphosphonic acid tetraethylester): effective in preventing bone loss
Femoral bone area in the immobilized leg / bone loss prevention (in words) ([1]; rats, s.c., listed as compound I): increased dose-dependently femoral bone area in the immobilized leg
Binding to bone mineral ([2]; 5 μmol/l): No binding
Binding to bone mineral ([2]; 100 μmol/l): No binding
Binding to bone mineral ([2]; 200 μmol/l): No binding
Binding to bone mineral ([2]; 500 μmol/l): No binding
Binding to hydroxyapatite (in words) [2, 7]: did not show either any binding on hydroxyapatite crystals in vitro
Binding to hydroxyapatite (in words) ([2]; listed as compound I): No binding
Inhibition of tetracycline excretion ([3]; 1 mg/kg s.c. daily for six days): 12.2 (6.4) %
Inhibition of tetracycline excretion ([3]; 10 mg/kg s.c. daily for six days): 19.8 (5.9) %
Inhibition of tetracycline excretion ([3]; 100 mg/kg s.c. daily for six days): 50.0 (6.1) %
Inhibition of tetracycline excretion ([3]; 200 mg/kg s.c. daily for six days): 72.9 (2.6) %
Inhibition of excretion of radiolabeled tetracycline / spontaneous bone resorption (in words) [3, 7]: decreased spontaneous bone resorption
Inhibition of excretion of radiolabeled tetracycline / spontaneous bone resorption (in words) ([3]; listed as compound I): dose-dependently inhibited
Urinary excretion 0-24 h as parent compound ([4]; i.v., 114 mg/kg): 13.6 % of dose
Urinary excretion as a parent compound during 24 hours (in words) ([4]; intravenous dose, rats): Minor amounts
Absorption of the oral dose (in words) ([4]; oral, rats): About half
Urinary excretion 0-24 h as parent compound ([4]; p.o., 114 mg/kg): 7.8 % of dose
bioavailability at 24 h ([4]; rat, po, p.o. vs i.v., 114 mg/kg, urine 0-24 h, read-out: Bioavailability F from urinary excretion): 58%
dose excreted at 24 h ([4]; rat, iv, 114 mg/kg, i.v.): 14%
dose excreted at 24 h ([4]; rat, po, 114 mg/kg, p.o.): < 10%
Inhibition of PTH-stimulated resorption, 100 (PTH - x)/PTH ([5]; 1 μmol/l, PTH 10 nM, three days culture): No inhibiton
Inhibition of PTH-stimulated resorption, 100 (PTH - x)/PTH ([5]; 10 μmol/l, PTH 10 nM, three days culture): No inhibition
Inhibition of PTH-stimulated resorption, 100 (PTH - x)/PTH ([5]; 100 μmol/l, PTH 10 nM, three days culture): No inhibition
inhibition at 1000 µM ([5]; Mus musculus, 72 h, 1000 μmol/l, PTH 10 nM, three days culture, (SE), read-out: Inhibition of PTH-stimulated resorption, 100 (PTH - x)/PTH): 12.9%
Inhibition of bone resorption in vitro, mice calvaria (in words) [5]: no inhibition of resorption in vitro was shown except at very high, unphysiological concentrations
Inhibition of bone resorption in vitro, mice calvaria (in words) [5, 7]: No effect
AUC(0-inf) ([6]; iv): 139000 ng·h/mL
bioavailability ([6]; po, p.o. vs i.v., 114 mg/kg, read-out: Bioavailability F from serum concentration data (AUC)): 44%
AUC(0-inf) ([6]; po): 60700 ng·h/mL
